Measured values from patent publication US11827628B2, “Compositions and methods for inhibition of the JAK pathway” (Rigel Pharmaceuticals, Inc., priority 2005, dated 2023).
Where a name gives a salt, the structure may show the parent alone. Read-outs that look alike come from different tables or passages of the source.

Legend:
[1] = tested on: IL-4 stimulated expression of CD23 in human Ramos B cells (JAK-1 and JAK-3); test: Assay for Ramos B-Cell Line Stimulated with IL-4 (CD23 upregulation, FACS); assay type: cell-based; details: read-out: IC50, Example 41
Method in brief: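 Read-out: anti-CD23-PE flow cytometry on Ramos B cells, giving IC50. Cells (5×10^4 per point, RPMI + 5% serum) get compound or DMSO for 1 h at 37 °C, then IL-4 50 units/mL final for 20-24 h.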

[2] = tested on: Primary human T-cells; test: Primary Human T-Cell Proliferation Assay Stimulated with IL-2 (CellTiter-Glo); assay type: cell-based; details: read-out: IC50, Example 42
Method in brief: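 Peripheral blood T-cells pre-activated with anti-CD3/anti-CD28 and IL-2 were washed free of IL-2, then cultured with compound plus IL-2 for 72 hours at 37° C, duplicate wells. Viability read as ATP by CellTiter-Glo luminescence; IC50 reported.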

[3] = Homo sapiens, Ramos, Ramos B-cell line stimulated with IL-4, CD23 expression by FACS
[4] = Homo sapiens, T-cell, primary human T-cell proliferation stimulated with IL-2
[5] = Ramos B cells stimulated with IL-4, CD23 expression by FACS
[6] = primary human T-cells stimulated with IL-2, proliferation

Compound	IC50 [1, 3] [nM]	IC50 [2, 4] [nM]	IC50 [1, 5] [nM]	IC50 [2, 6] [nM]
Cc1ccc(Nc2ncc(F)c(Nc3ccc(OCC(N)=O)c(F)c3)n2)cc1S(N)(=O)=O [Compound I-102, N4-(4-Aminocarbonylmethoxy-3-fluorophenyl)-N2-(3-aminosulfonyl-4-methylphenyl)-5-fluoro-2,4-pyrimidinediamine]	219	211		
Cc1cnc(Nc2ccc(Cl)c(S(N)(=O)=O)c2)nc1Nc1ccc(CCC#N)cc1 [III-12, N2-(3-Aminosulfonyl-4-chlorophenyl)-N4-[4-(2-cyanoethyl)phenyl]-5-methyl-2,4-pyrimidinediamine]	70	107		
Cc1ccc(Nc2ncc(F)c(Nc3ccc(CN4CCS(=O)(=O)CC4)cc3)n2)cc1S(N)(=O)=O [III-111, N2-(3-Aminosulfonyl-4-methylphenyl)-5-fluoro-N4-{4-[(1,1-dioxothiomorpholin-4-yl-)methyl]phenyl}-2,4-pyrimidinediamine]			321	926
Cc1ccc(Nc2ncc(F)c(Nc3cnc4c(c3)OC(C)(C)C(=O)N4CC#N)n2)cc1S(N)(=O)=O [Compound V-14, N2-(3-Aminosulfonyl-4-methylphenyl)-N4-[2,2-dimethyl-3-oxo-4-cyanomethyl-5-pyrid[1,4]oxazin-7-yl]-5-fluoro-2,4-pyrimidinediamine]			197	2590
COc1cc(Nc2nc(Nc3ccc(S(N)(=O)=O)cc3)ncc2F)cc(OCC#N)c1OC [Compound I-1, N2-(4-Aminosulphonylphenyl)-N4-(3-cyanomethoxy-4,5-dimethoxyphenyl)-5-fluoro-2,4-pyrimidinediamine]	366	9890		
NS(=O)(=O)c1cccc(Nc2ncc(F)c(Nc3ccc(Cn4cncn4)cc3)n2)c1 [III-100, N2-(3-Aminosulfonylphenyl)-5-fluoro-N4-{4-[1-(1,2,4-thazolyl)methyl]phenyl}-2,4-pyrimidinediamine]			162	197
NS(=O)(=O)c1cccc(Nc2ncc(F)c(Nc3ccc(Cc4ccncc4)cc3)n2)c1 [III-129, N2-(3-Aminosulfonylphenyl)-5-fluoro-N4-[4-(4-pyridylmethyl)phenyl]-2,4-pyrimidinediamine Methanesulfonic Acid Salt]			174	180
Cc1ccc(Nc2ncc(C)c(Nc3ccc(OCC#N)cc3)n2)cc1S(N)(=O)=O [Compound I-59, N2-(3-Aminosulfonyl-4-methylphenyl)-N4-(4-cyanomethoxyphenyl)-5-methyl-2,4-pyrimidinediamine]	6.55	24.9		
Cc1cnc(Nc2cccc(S(N)(=O)=O)c2)nc1Nc1ccc(OCC(=O)N(C)C)c(F)c1 [Compound I-138, N2-(3-Aminosulfonylphenyl)-N4-(4-dimethylaminocarbonylmethoxy-3-fluorophenyl)-5-methyl-2,4-pyrimidinediamine]	461	223		
Cc1ccc(Nc2ncc(F)c(Nc3ccc(Oc4cccnc4)cc3)n2)cc1S(N)(=O)=O [II-12, N2-(3-Aminosulfonyl-4-methylphenyl)-5-fluoro-N4-[4-(3-pyridyloxy)phenyl]-2,4-pyrimidinediamine]	56.3	409		
NS(=O)(=O)c1cccc(Nc2ncc(F)c(Nc3ccc(CN4CCOCC4)cc3)n2)c1 [III-103, N2-(3-Aminosulfonylphenyl)-5-fluoro-N4-(4-N-morpholinomethylenephenyl)-2,4-pyrimidinediamine]			230	1060
NS(=O)(=O)c1cccc(Nc2ncc(F)c(Nc3ccc(Oc4cccnc4)cc3)n2)c1 [II-11, N2-(3-Aminosulfonylphenyl)-5-fluoro-N4-[4-(3-pyridyloxy)phenyl]-2,4-pyrimidinediamine]	107	198		
COc1ccc(Nc2ncc(F)c(Nc3ccc(Cc4ccncc4)cc3)n2)cc1S(N)(=O)=O [III-66, N2-(3-Aminosulfonyl-4-methoxyphenyl)-5-fluoro-N4-[4-(4-pyridinylmethyl)phenyl]-2,4-pyrimidinediamine]	142	1150		
Cc1cnc(Nc2cccc(S(N)(=O)=O)c2)nc1Nc1ccc(OCC(=O)N(C)C)c(Cl)c1 [Compound I-135, N2-(3-Aminosulfonylphenyl)-N4-(3-chloro-4-dimethylaminocarbonylmethoxyphenyl)-5-methyl-2,4-pyrimidinediamine]	112	104		
Cc1ccc(Nc2ncc(F)c(Nc3ccc(CCC#N)c(F)c3)n2)cc1S(N)(=O)=O [III-17, N2-(3-Aminosulfonyl-4-methylphenyl)-5-fluoro-N4-[4-(2-cyanoethyl)-3-fluorophenyl]-2,4-pyrimidinediamine]	56.7	197		
Cc1ccc(Nc2ncc(F)c(Nc3ccc(CCC#N)c(Cl)c3)n2)cc1S(N)(=O)=O [III-21, N2-(3-Aminosulfonyl-4-methylphenyl)-N4-[3-chloro-4-(2-cyanoethyl)phenyl]-5-fluoro-2,4-pyrimidinediamine]	30.3	114		
Cc1cc(COc2ccc(Nc3nc(Nc4cccc(S(N)(=O)=O)c4)ncc3F)cc2)no1 [Compound I-230, N2-(3-Aminosulfonylphenyl)-5-fluoro-N4-[4-(5-methylisoxazol-3-yl)methyleneoxyphenyl]-2,4-pyrimidinediamine]	84.3	69.2		
C=CCNC(=O)COc1ccc(Nc2nc(Nc3cccc(S(N)(=O)=O)c3)ncc2F)cc1 [Compound I-158, N4-(4-Allylaminocarbonylmethoxyphenyl)-N2-(3-aminosulfonylphenyl)-5-fluoro-2,4-pyrimidinediamine]	297	445		
CN(C)C(=O)COc1ccc(Nc2nc(Nc3cccc(S(N)(=O)=O)c3)ncc2F)cc1Cl [Compound I-132, N2-(3-Aminosulfonylphenyl)-N4-(3-chloro-4-dimethylaminocarbonylmethoxyphenyl)-5-fluoro-2,4-pyrimidinediamine]	351	464		
CNC(=O)COc1ccc(Nc2nc(Nc3cccc(S(N)(=O)=O)c3)ncc2C)cc1F [Compound I-155, N2-(3-Aminosulfonylphenyl)-N4-(3-fluoro-4-methylaminocarbonylmethoxyphenyl)-5-methyl-2,4-pyrimidinediamine]	118	99.3		
NC(=O)COc1ccc(Nc2nc(Nc3cccc(S(N)(=O)=O)c3)ncc2F)cc1F [Compound I-101, N4-(4-Aminocarbonylmethoxy-3-fluorophenyl)-N2-(3-aminosulfonylphenyl)-5-fluoro-2,4-pyrimidinediamine]	328			
Cc1ccc(Nc2ncc(F)c(NCCc3ccc(-n4ccnc4)cc3)n2)cc1S(N)(=O)=O [III-88, N2-(3-Aminosulfonyl-4-methylphenyl)-5-fluoro-N4-[4-(1-imidazolyl)phenethyl]-2,4-pyrimidinediamine]	141	166		
Cc1ccc(Nc2ncc(F)c(Nc3ccc(Cc4ccncc4)cc3)n2)cc1S(N)(=O)=O [III-74, N2-(3-Aminosulfonyl-4-methylphenyl)-5-fluoro-N4-[4-(4-pyridinylmethyl)phenyl]-2,4-pyrimidinediamine]	95.2	175		
Cc1cnc(Nc2ccc(S(N)(=O)=O)cc2)nc1Nc1ccc(OCC(N)=O)cc1 [Compound I-108, N4-(4-Aminocarbonylmethoxyphenyl)-N2-(4-aminosulfonylphenyl)-5-methyl-2,4-pyrimidinediamine]	145	148		
Cc1cc(COc2ccc(Nc3nc(Nc4cccc(S(=O)(=O)NCc5oc(=O)oc5C)c4)ncc3F)cc2)no1 [Compound I-247, N2-{3-[(N-5-Methyl-1,3-dioxolene-2-one-4-yl)methylene]aminosulfonylphenyl}-5-fluoro-N4-[4-(5-methylisoxazol-3-yl)methyleneoxyphenyl]-2,4-pyrimidinediamine]	225	119		
Cc1ccc(Nc2ncc(C)c(Nc3ccc(OCC(=O)N(C)C)c(F)c3)n2)cc1S(N)(=O)=O [Compound I-139, N2-(3-Aminosulfonyl-4-methylphenyl)-N4-(4-dimethylaminocarbonylmethoxy-3-fluorophenyl)-5-methyl-2,4-pyrimidinediamine]	375	240		
N#CCOc1ccc(Nc2nc(Nc3ccc(S(N)(=O)=O)cc3)ncc2F)cc1F [Compound I-44, N2-(4-Aminosulfonylphenyl)-N4-(4-cyanomethoxy-3-fluorophenyl)-5-fluoro-2,4-pyrimidinediamine]	53.2	342		
Cc1ccc(Nc2ncc(F)c(NCCc3ccc(-c4ccncc4)cc3)n2)cc1S(N)(=O)=O [III-77, N2-(3-Aminosulfonyl-4-methylphenyl)-5-fluoro-N4-[4-(4-pyridinyl)phenethyl]-2,4-pyrimidinediamine]	177	210		
Cc1ccc(Nc2ncc(F)c(Nc3ccc(OCC(N)=O)c(Cl)c3)n2)cc1S(N)(=O)=O [Compound I-99, N4-(4-Aminocarbonylmethoxy-3-chlorophenyl)-N2-(3-aminosulfonyl-4-methylphenyl)-5-fluoro-2,4-pyrimidinediamine]	68.6	148		
NC(=O)COc1ccc(Nc2nc(Nc3cccc(S(N)(=O)=O)c3)ncc2F)cc1Cl [Compound I-98, N4-(4-Aminocarbonylmethoxy-3-chlorophenyl)-N2-(3-aminosulfonylphenyl)-5-fluoro-2,4-pyrimidinediamine]	295			
